Results: publication PMC11219744, “Renal excretion of 1,2-dihydroxynaphthalene (DHN) in firefighting instructors after exposure to polycyclic aromatic hydrocarbons (PAHs) during live fire training” (Scientific Reports, 2024)
Where “and” joins values, the source holds several entries; their conditions need not be identical. Equal values may be shown once. Read-outs that look alike come from different tables or passages of the source.

Assays:
[1] = Human biomonitoring: urinary excretion of PAH metabolites (GC–MS/MS, creatinine-normalised) in firefighting instructors before and after live fire training; details: for concentration at 6 h: Concentration in urine, sampling 6, corresponding to end of shift; for Median increase from baseline (sample 2) to peak excretion: peak: sample 5 for 1-PYR, sample 4 otherwise
Protocol: All study participants (n = 6) were male firefighting instructors from Germany. […] Before the start of the study, all subjects declared that they were non-smokers. Tattoo bearers were excluded before the start of the study as tattoo ink can be a potential source of polycyclic aromatic hydrocarbons. The authors declare that this research was conducted in accordance with the relevant regulations, including the Declaration of Helsinki. All subjects gave written informed consent after being informed about the study by the investigator.
Exposure to combustion products took place in several training sessions that simulated live fire conditions by burning a defined number of uncoated chipboards in an overseas container. The container was located in a hall with exhaust air purification. […] In addition, all subjects wore long-sleeved undergarments under their turnout gear. Only laundered clothing and cleaned equipment (e.g. helmets, masks) were used. The donning and doffing of clothing and protective equipment took place only in a smoke-free, well-ventilated area. Immediately after taking off the firefighters' gloves after training, the participants put on nitrile gloves for further undressing. After removing the helmet, flash hood and SCBA face shield, the participants put on particle filtering half masks (FFP3) to remove contaminated turnout jackets and trousers. After a break for rehydration and cool down still wearing their undergarments, the participants went to shower. […] The interval between two consecutive training sessions for each subject was at least six days. […] In this way, each subject was biomonitored at each of the five training sessions. All additional (unscheduled) urinations between the predefined times were also collected in separate containers and pooled afterwards with the next scheduled sample. […] A total of 270 samples were to be collected using this procedure for all participants and five training sessions of each individual. Subjects completed a questionnaire for each sampling period to account for possible pre-exposure or concurrent exposure to PAHs from sources other than the fire simulation unit, such as occupational exposure to combustion products, exposure to tobacco smoke (active/passive) and barbecue activities, and consumption of smoked or charbroiled foods.
In brief, the analytes were extracted by liquid–liquid extraction with n-hexane after enzymatic hydrolysis of the urine samples with ß-glucuronidase/arylsulfatase (isolated from helix pomatia) and derivatised by silylation with N-trimethylsilyl-N-methyl trifluoroacetamide afterwards. […] All standards were obtained from LGC-Standards, Wesel, Germany.
DHN in urine was determined referring to a method described in detail by Klotz et al.[29]. […] External calibration with internal standardisation by an isotopically labelled analogue of the target compound was done by analysis of pool urine samples spiked with the glucuronides of DHN and D6-1,2-dihydroxynaphthalene (internal standard) before enzymatic hydrolysis. Both standards are not commercially available and were obtained as a gift from the Institute of Occupational, Social and Environmental Medicine at the University of Erlangen-Nuremberg (Germany). A detailed description of the synthesis of the compounds is given by[26]. […] Up to now, there is no external quality assessment scheme available for DHN.
Urinary creatinine was analysed in the Institute of Clinical Chemistry and Laboratory Medicine of University Medical Centre of the Johannes Gutenberg University Mainz using a photometrical assay based on the method of[30].

[2] = Time to peak and initial elimination half-life of the urinary biomarkers (first-order model, linear mixed effects); assay type: in vivo, human; details: for half-life: male, human, in vivo, initial elimination half-life after peak excretion, urine, read-out: Estimated half-life, mean (converted); for Time to peak, median / Time to peak, range: urinary excretion, time after onset of exposure
Description: The initial half-life of each biomarker was estimated using statistical methods described previously[6],[32]. In short, we estimated the first-order elimination rate constant λ based on the model in Eq. (1):1 C=C0+B·e^λ·t+∈
Here, C is the creatinine-adjusted concentration in urine after the uptake phase, C0 is the baseline concentration before training, B is the difference from peak to baseline concentration, t is the time since peak concentration, and ϵ is the error term. […] Using package nlme[33] for the statistical environment R[34],[35], the model was fitted as a linear mixed effects model for the log concentration difference to baseline ln(C–C0) as the outcome. The model was fitted simultaneously for all data and included fixed effects for biomarker, time since peak, and their interaction term. It used random slopes for time since peak and random intercepts for […]. Errors were assumed to be autocorrelated according to an AR(1) process.

[3] = cited from earlier work
[4] = parameters: method as in PMID 32464238; details: by scheduled sampling time; cited from earlier work
[5] = upper margin of internal exposure typically found in smokers; cited from earlier work
[6] = 58 urine samples before onset of exposure, not creatinine-normalised
[7] = sampling 1, morning urine on training day before exposure (mean −4.2 h from start of exposure), n = 30
[8] = sampling 1, morning urine on training day before exposure, n = 30
[9] = sampling 2, before training (mean −0.4 h), n = 28
[10] = sampling 2, before training, n = 28
[11] = sampling 3, at the end of the training session (mean 2.0 h after start of exposure), n = 26
[12] = sampling 3, at the end of the training session, n = 26
[13] = sampling 4, 1 h after the end of training (mean 3.0 h after start of exposure), n = 25
[14] = sampling 4, 1 h after the end of training, n = 25
[15] = sampling 5, 3 h after the end of training (mean 5.2 h after start of exposure), n = 22
[16] = sampling 5, 3 h after the end of training, n = 22
[17] = sampling 6, 6 h after the end of training (mean 8.1 h after start of exposure), n = 23
[18] = sampling 6, 6 h after the end of training, n = 23
[19] = sampling 7, 9 h after the end of training (mean […] after start of exposure), n = 27
[20] = sampling 7, 9 h after the end of training, n = 27
[21] = sampling 8, right before bedtime (mean 12.7 h after start of exposure), n = 27
[22] = sampling 8, right before bedtime, n = 27
[23] = sampling 9, morning urine the next day, 18 h after training (mean 20.1 h after start of exposure), n = 29
[24] = sampling 9, morning urine the next day, n = 29

Structure (SMILES): Oc1ccc2ccccc2c1O [DHN, 1,2-dihydroxynaphthalene]
- Concentration in urine, median [1, 6]: 2.89 µg/L
- Concentration in urine, range [1, 6]: 0.6 to 19.4 µg/L
- Baseline concentration in urine, total range ([1]; before training, samplings 1 and 2 together): 0.9–10.2 µg/g crea. and 0.87–10.19 µg/g crea.
- Urinary peak concentration, median (range) ([1]; firefighters after live fire training, sampling 4, n = 6, Germany): 246.7 (18.2–1084.2) µg/l
- Median increase in morning urine after exposure (sampling 9) vs. before (sampling 1) ([1]; male, human, in vivo, 18 h): 12.9 fold
- concentration at 6 h ([1]; male, human, in vivo, median): 71.3 ng/mL
- concentration at 6 h ([1]; male, human, in vivo, range): 16.6 to 674 ng/mL
- Median increase from baseline (sample 2) to peak excretion [1]: 41 fold
- Individual maximum concentration in urine ([1]; post exposure, sampling 4): 380.4 µg/g crea.
- Concentration in urine, median [1, 7]: 2.23 µg/g creatinine
- Concentration in urine, IQR [1, 8]: 1.43–4.18 µg/g creatinine
- Concentration in urine, range [1, 8]: 0.87–10.19 µg/g creatinine
- Concentration in urine, median [1, 9]: 3.3 µg/g creatinine and 3.32 µg/g creatinine
- Concentration in urine, IQR [1, 10]: 2.03–4.80 µg/g creatinine
- Concentration in urine, range [1, 10]: 1.41–9.04 µg/g creatinine
- Concentration in urine, median [1, 11]: 31.60 µg/g creatinine
- Concentration in urine, IQR [1, 12]: 25.79–52.81 µg/g creatinine
- Concentration in urine, range [1, 12]: 10.68–166.80 µg/g creatinine
- Concentration in urine, median [1, 13]: 134.2 µg/g creatinine and 134.15 µg/g creatinine
- Concentration in urine, IQR [1, 14]: 92.94–164.89 µg/g creatinine
- Concentration in urine, range [1, 14]: 43.38–380.43 µg/g creatinine
- Concentration in urine, median [1, 15]: 131.46 µg/g creatinine
- Concentration in urine, IQR [1, 16]: 104.83–207.75 µg/g creatinine
- Concentration in urine, range [1, 16]: 78.66–375.77 µg/g creatinine
- Concentration in urine, median [1, 17]: 86.01 µg/g creatinine
- Concentration in urine, IQR [1, 18]: 67.60–137.94 µg/g creatinine
- Concentration in urine, range [1, 18]: 46.21–284.21 µg/g creatinine
- Concentration in urine, median [1, 19]: 51.58 µg/g creatinine
- Concentration in urine, IQR [1, 20]: 40.81–76.67 µg/g creatinine
- Concentration in urine, range [1, 20]: 21.95–159.57 µg/g creatinine
- Concentration in urine, median [1, 21]: 46.02 µg/g creatinine
- Concentration in urine, IQR [1, 22]: 30.70–63.89 µg/g creatinine
- Concentration in urine, range [1, 22]: 19.82–154.82 µg/g creatinine
- Concentration in urine, median [1, 23]: 27.1 µg/g creatinine and 27.08 µg/g creatinine
- Concentration in urine, IQR [1, 24]: 20.03–40.28 µg/g creatinine
- Concentration in urine, range [1, 24]: 15.69–139.47 µg/g creatinine
- Time of peak excretion after the end of the training session ([2]; by scheduled sampling time): 1 h
- Time required to reach pre exposure levels again ([2]; from median maximum 134.15 µg/g crea., about 5 half-lives, monophasic elimination assumed): approximately 33 h
- half-life [2]: 6.6 h
- Time to peak, median [2]: 3.3 h
- Time to peak, range [2]: 2.5 to 19.0 h
- Urinary level, median ([3]; 20 non-smoking subjects): 4.6 µg/L
- Urinary concentration, GM (GSD) ([3]; coke oven workers, n = 28, China): 452 (2.28) µg/l
- Urinary concentration, geometric mean ([3]; control group, n = 22 office and hospital workers including three smokers, China): 38.8 µg/L
- Urinary concentration, median ([3]; n = 9 smokers): 17.1 µg/L
- Urinary concentration, range ([3]; n = 9 smokers): 1.9 to 62 µg/L
- Urinary concentration, median (range) ([3]; wood impregnation workers, n = 9, Germany): 88.3 (10.8–1497) µg/l
- Urinary concentration, median (range) ([3]; workers at converter infeed, n = 26, Germany): 945.4 (22.0–1902.6) µg/l
- Urinary concentration, median (range) ([3]; workers in the abrasive industry, post-shift Monday, n = 10, Germany): 3944 (114–42,066) µg/l
- Urinary concentration, median (range) ([3]; workers in the abrasive industry, post-shift Thursday, n = 10, Germany): 11,162 (337–51,809) µg/l

Structure (SMILES): Oc1ccc2ccc3cccc4ccc1c2c34 [1-PYR, 1-hydroxypyrene]
- Median increase in morning urine after exposure (sampling 9) vs. before (sampling 1) ([1]; male, human, in vivo, 18 h): 2.8 fold
- Median increase from baseline (sample 2) to peak excretion [1]: 7.9 fold
- Maximum excretion pre exposure ([1]; pre exposure samplings): 0.22 µg/g creatinine
- Concentration in urine, median [1, 7]: 0.06 µg/g creatinine
- Concentration in urine, IQR [1, 8]: 0.04–0.08 µg/g creatinine
- Concentration in urine, range [1, 8]: 0.03–0.15 µg/g creatinine
- Concentration in urine, median [1, 9]: 0.05 µg/g creatinine
- Concentration in urine, IQR [1, 10]: 0.03–0.06 µg/g creatinine
- Concentration in urine, median [1, 11]: 0.06 µg/g creatinine
- Concentration in urine, IQR [1, 12]: 0.04–0.08 µg/g creatinine
- Concentration in urine, median [1, 13]: 0.20 µg/g creatinine
- Concentration in urine, IQR [1, 14]: 0.14–0.31 µg/g creatinine
- Concentration in urine, range [1, 14]: 0.06–1.61 µg/g creatinine
- Concentration in urine, median [1, 15]: 0.40 µg/g creatinine
- Concentration in urine, IQR [1, 16]: 0.21–0.59 µg/g creatinine
- Concentration in urine, range [1, 16]: 0.16–1.88 µg/g creatinine
- Concentration in urine, median [1, 17]: 0.29 µg/g creatinine
- Concentration in urine, IQR [1, 18]: 0.19–0.42 µg/g creatinine
- Concentration in urine, range [1, 18]: 0.10–1.93 µg/g creatinine
- Concentration in urine, median [1, 19]: 0.25 µg/g creatinine
- Concentration in urine, IQR [1, 20]: 0.16–0.30 µg/g creatinine
- Concentration in urine, range [1, 20]: 0.08–1.56 µg/g creatinine
- Concentration in urine, median [1, 21]: 0.21 µg/g creatinine
- Concentration in urine, IQR [1, 22]: 0.12–0.33 µg/g creatinine
- Concentration in urine, range [1, 22]: 0.06–1.06 µg/g creatinine
- Concentration in urine, median [1, 23]: 0.17 µg/g creatinine
- Concentration in urine, IQR [1, 24]: 0.10–0.25 µg/g creatinine
- Concentration in urine, range [1, 24]: 0.05–0.63 µg/g creatinine
- half-life [2]: 7.7 h
- Time to peak, median [2]: 5.3 h
- Time to peak, range [2]: 2.5 to 13.9 h

Structure (SMILES): Oc1cccc2ccccc12 [1-NAP, 1-hydroxynaphthalene]
- Increase in concentration from before exposure up to the maximum of excretion, factor ([1]; in vivo): 40
- Median increase in morning urine after exposure (sampling 9) vs. before (sampling 1) ([1]; in vivo): 3.9 fold
- Median increase from baseline (sample 2) to peak excretion [1]: 36 fold
- Time of peak excretion after the end of the training session [4]: 1 h
- 95th percentile of urinary concentration in smokers [5]: 32.8 µg/g crea.
